Test results reported in US20260347348A1, “JAK1/JAK2/TYK2 Inhibitors For Topical Treatment of Dermatological Diseases” (Hangzhou Highlightll Pharmaceutical Co., Ltd, priority 2022, published 2026).

Assays:
[1] = approved oral agents; topical formulation of ruxolitinib; cited from earlier work
JAK1 [2] = target: T1, JAK1 (Homo sapiens, UniProt P23458); experiment: JAK1 biochemical test (33P-ATP filter binding kinase assay); conditions: room temperature, 2 hours
Procedure: (§1) The tests were conducted by Reaction Biology Corp, Malvern, PA (Anastassiadis et al. Nat Biotechnol. 2011; 29(11):1039-45). The step is briefly described as follows.
(§2) Basic reaction buffer: 20 mM Hepes (pH 7.5), 10 mM MgCl2, 1 mM EGTA, 0.02% Brij35, 0.02 mg/ml BSA, 0.1 mM Na3VO4, 2 mM DTT and 1% DMSO. The required cofactor was added to each kinase reaction respectively.
(§3) • 1. Preparing the designated substrate in the newly prepared basic reaction buffer; • 2. Transferring the required cofactor to the above matrix solution; • 3. Transferring the designated kinase to the substrate solution and mixing well slightly; • 4. Transferring a compound of formulae I-III in DMSO to the kinase reaction mixture with Acoustic technique (Echo550; nanoliter range), culturing for 20 minutes at room temperature; • 5. Introducing ^33P-ATP (specific activity: 10 μCi/μl) to the reaction mixture to trigger a reaction; • 6. Culturing at room temperature and conducting a kinase reaction for 2 hours; • 7. Plotting the reaction on P81 ion exchange paper; • 8. Testing the kinase activity with a filter binding assay.

TYK2/JAK1/JAK2 = TYK2/JAK1/JAK2 biochemical tests, comparative summary; conditions: for fold less potent TYK2/JAK1/JAK2 inhibitor compared to analogs of Formula II (example 4) and Formula III (example 18): compared with examples 4 and 18; for fold less potent than its 2-((pyrazol-4-yl)amino) analog (example 18): compared with example 18
Procedure: as §1, §2, §3

JAK2 = JAK2 (Homo sapiens, UniProt O60674); experiment: JAK2 biochemical test (33P-ATP filter binding kinase assay); conditions: room temperature, 2 hours
Procedure: as §1, §2, §3

JAK1 [3] = target: T1, JAK1; experiment: JAK1 cellular ELISA assay using PBMC cells (IL-6 stimulated STAT3 phosphorylation); format: cell-based; conditions: IL-6 100 ng/ml, 25 min
Procedure: Purpose: test cellular JAK1 activity using the IL-6 stimulated STAT3 phosphorylation assay in PBMC cells.
• 1. Plate PBMC cells to 96-well plate at density of ~300,000 cell/well; • 2. Add different concentrations of test article to wells, maintain in incubator at 37° C. and 5% CO2 for 1 hour; • 3. Add IL-6 (final concentration: 100 ng/ml) to stimulate for 25 min in the above incubator; • 4. After stimulation, transfer the suspension to 1.5 mL tube, centrifuge at 200 g for 5 min, collect cells, add 100 μL 1× lysate, lyse on ice for 1 hour; • 5. Centrifuge at 4° C. and 12000 rpm for 10 min, take the supernatant and analyze according to instructions of the ELISA kit.

TYK2 = TYK2 (Homo sapiens, UniProt P29597); experiment: TYK2 biochemical test (33P-ATP filter binding kinase assay); conditions: room temperature, 2 hours
Procedure: as §1, §2, §3

Sequence of JAK2 (O60674 whole entry): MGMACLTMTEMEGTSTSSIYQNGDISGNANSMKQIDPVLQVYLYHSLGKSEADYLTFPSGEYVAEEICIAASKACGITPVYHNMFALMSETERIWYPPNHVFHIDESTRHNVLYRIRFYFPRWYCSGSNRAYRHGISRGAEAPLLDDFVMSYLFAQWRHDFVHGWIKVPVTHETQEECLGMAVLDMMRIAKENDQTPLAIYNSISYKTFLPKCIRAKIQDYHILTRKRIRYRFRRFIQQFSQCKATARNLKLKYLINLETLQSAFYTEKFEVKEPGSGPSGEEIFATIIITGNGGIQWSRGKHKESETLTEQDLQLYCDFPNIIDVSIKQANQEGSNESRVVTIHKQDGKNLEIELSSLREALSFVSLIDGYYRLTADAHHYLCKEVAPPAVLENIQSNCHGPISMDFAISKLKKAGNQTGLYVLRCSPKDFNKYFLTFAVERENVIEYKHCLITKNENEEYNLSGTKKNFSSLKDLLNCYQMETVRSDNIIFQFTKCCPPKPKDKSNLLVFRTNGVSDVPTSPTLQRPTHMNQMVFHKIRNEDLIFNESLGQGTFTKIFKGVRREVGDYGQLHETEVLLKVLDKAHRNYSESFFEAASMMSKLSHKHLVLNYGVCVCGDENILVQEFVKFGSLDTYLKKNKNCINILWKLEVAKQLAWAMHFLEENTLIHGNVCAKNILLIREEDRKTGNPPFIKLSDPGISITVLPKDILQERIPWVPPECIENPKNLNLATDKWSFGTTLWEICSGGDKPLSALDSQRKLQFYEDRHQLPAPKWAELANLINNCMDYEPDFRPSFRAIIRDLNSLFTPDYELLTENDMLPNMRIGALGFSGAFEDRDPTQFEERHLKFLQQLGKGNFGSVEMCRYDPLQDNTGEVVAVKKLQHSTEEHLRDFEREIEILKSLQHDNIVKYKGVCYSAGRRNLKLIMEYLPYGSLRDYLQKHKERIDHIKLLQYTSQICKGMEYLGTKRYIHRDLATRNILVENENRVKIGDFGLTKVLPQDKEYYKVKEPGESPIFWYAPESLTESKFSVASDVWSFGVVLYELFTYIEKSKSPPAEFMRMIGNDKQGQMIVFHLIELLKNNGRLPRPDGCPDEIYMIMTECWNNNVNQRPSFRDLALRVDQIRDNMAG
Sequence of TYK2 (P29597 whole entry): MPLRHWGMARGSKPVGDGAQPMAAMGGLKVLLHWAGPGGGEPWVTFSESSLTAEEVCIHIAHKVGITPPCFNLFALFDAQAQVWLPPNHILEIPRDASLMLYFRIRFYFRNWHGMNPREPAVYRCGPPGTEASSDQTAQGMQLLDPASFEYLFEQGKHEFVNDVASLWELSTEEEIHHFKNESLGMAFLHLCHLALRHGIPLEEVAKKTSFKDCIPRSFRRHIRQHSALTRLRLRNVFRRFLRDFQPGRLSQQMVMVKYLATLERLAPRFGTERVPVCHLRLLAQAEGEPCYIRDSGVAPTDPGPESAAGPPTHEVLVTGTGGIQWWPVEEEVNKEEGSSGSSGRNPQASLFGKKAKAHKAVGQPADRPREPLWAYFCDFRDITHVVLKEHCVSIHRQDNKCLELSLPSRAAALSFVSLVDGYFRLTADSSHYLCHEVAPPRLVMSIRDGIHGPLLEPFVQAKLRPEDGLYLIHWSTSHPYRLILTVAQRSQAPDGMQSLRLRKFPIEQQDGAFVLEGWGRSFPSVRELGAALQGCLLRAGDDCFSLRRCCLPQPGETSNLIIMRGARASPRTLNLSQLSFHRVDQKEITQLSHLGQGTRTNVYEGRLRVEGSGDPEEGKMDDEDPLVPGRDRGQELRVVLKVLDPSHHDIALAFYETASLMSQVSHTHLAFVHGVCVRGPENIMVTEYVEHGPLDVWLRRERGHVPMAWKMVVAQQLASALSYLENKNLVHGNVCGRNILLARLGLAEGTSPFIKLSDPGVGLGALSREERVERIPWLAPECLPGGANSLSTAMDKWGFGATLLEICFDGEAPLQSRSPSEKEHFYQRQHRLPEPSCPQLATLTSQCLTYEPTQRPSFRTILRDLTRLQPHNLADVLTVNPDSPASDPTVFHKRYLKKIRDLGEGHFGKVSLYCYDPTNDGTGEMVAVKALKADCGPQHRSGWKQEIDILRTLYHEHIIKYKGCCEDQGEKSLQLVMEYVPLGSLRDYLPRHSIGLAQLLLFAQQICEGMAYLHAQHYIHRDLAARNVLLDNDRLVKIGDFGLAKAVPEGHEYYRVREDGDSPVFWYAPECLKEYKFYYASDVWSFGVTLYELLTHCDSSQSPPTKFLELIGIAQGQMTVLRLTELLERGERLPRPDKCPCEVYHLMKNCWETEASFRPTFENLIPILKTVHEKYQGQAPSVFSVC
T1 sequence (P23458 whole entry): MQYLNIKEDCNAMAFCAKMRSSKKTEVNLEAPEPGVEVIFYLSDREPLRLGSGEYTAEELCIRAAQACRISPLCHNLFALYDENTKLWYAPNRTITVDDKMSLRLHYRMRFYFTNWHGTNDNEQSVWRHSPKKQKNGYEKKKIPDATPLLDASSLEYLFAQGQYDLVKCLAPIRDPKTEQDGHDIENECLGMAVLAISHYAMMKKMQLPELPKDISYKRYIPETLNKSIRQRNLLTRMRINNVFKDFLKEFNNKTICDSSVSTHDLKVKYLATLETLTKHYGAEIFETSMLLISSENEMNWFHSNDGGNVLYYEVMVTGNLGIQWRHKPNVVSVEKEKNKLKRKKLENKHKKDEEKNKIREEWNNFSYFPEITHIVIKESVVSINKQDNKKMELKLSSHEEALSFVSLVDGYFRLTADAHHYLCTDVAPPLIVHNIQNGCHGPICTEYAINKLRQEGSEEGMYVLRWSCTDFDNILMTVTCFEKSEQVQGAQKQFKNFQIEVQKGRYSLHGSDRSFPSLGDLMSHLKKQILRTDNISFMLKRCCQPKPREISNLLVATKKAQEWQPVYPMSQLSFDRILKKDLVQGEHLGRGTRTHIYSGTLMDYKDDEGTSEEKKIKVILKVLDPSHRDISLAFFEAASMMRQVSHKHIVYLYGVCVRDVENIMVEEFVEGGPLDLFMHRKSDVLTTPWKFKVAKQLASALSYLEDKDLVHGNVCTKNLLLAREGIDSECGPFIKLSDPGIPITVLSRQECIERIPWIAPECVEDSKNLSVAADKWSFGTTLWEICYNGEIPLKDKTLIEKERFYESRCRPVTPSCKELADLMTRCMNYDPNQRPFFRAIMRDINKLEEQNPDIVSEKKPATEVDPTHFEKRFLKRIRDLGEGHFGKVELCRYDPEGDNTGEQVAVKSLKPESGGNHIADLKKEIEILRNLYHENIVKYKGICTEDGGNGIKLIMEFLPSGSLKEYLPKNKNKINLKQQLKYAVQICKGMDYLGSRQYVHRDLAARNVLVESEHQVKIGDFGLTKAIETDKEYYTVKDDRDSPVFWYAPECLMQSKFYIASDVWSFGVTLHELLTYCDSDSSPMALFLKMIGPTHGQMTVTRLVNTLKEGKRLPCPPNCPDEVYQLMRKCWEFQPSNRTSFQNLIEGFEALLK

CC[C@@H]1CN(C(=O)NCC(F)(F)F)C[C@@H]1c1cnc2cnc3[nH]ccc3n12 [upadacitinib]
black box warnings / risks [1]: black box warnings of risks such as serious infections, non-melanoma skin cancers, thrombosis, and thrombocytopenia

Cc1cnc(Nc2ccc3ncn(C)c3c2)nc1-c1cnn([C@H](CC#N)C2CCCC2)c1 [Compound 23, (R)-3-cyclopentyl-3-(4-(5-methyl-2-((1-methyl-1H-benzo[d]imidazol-6-yl)amino)pyrimidin-4-yl)-1H-pyrazol-1-yl)propanenitrile]
IC50 (JAK1 [2]): < 1 nM
TYK2/JAK1/JAK2 inhibition (in words) (TYK2/JAK1/JAK2): potent TYK2/JAK1/JAK2 inhibitors
IC50 (JAK2): < 1 nM
IC50 (JAK1 [3]): < 500 nM
IC50 (TYK2): < 1 nM

Cc1cnc(Nc2cnoc2)nc1-c1cnn([C@H](CC#N)C2CCCC2)c1 [Compound 5, (R)-3-cyclopentyl-3-(4-(2-(isoxazol-4-ylamino)-5-methylpyrimidin-4-yl)-1H-pyrazol-1-yl) propanenitrile]
IC50 (JAK1 [2]): < 1 nM
TYK2/JAK1/JAK2 inhibition (in words) (TYK2/JAK1/JAK2): potent TYK2/JAK1/JAK2 inhibitors
IC50 (JAK2): < 1 nM
IC50 (TYK2): < 1 nM

CCS(=O)(=O)N1CC(CC#N)(n2cc(-c3nc(Nc4cnn(C)c4)ncc3C3CC3)cn2)C1 [Compound 2, 2-(3-(4-(5-cyclopropyl-2-((1-methyl-1H-pyrazol-4-yl)amino)pyrimidin-4-yl)-1H-pyrazol-1-yl)-1-(ethylsulfonyl)azetidin-3-yl) acetonitrile]
IC50 (JAK1 [2]): < 10 nM
TYK2/JAK1/JAK2 inhibition (in words) (TYK2/JAK1/JAK2): potent TYK2/JAK1/JAK2 inhibitors
IC50 (JAK2): < 1 nM
IC50 (TYK2): < 1 nM

CNS(=O)(=O)C[C@H]1CC[C@H](N(C)c2nc(Nc3cnn(C)c3)ncc2C)CC1 [Compound 21, N-methyl-1-((1r,4r)-4-(methyl(5-methyl-2-((1-methyl-1H-pyrazol-4-yl)amino)pyrimidin-4-yl)amino)cyclohexyl)methanesulfonamide, reference compound]
IC50 (JAK1 [2]): > 100 nM
fold less potent TYK2/JAK1/JAK2 inhibitor compared to analogs of Formula II (example 4) and Formula III (example 18) (TYK2/JAK1/JAK2): > 100 ×
IC50 (JAK2): > 100 nM
IC50 (TYK2): > 100 nM

CCS(=O)(=O)N1CC(CC#N)(n2cc(-c3nc(Nc4ccn(C)n4)ncc3C)cn2)C1.Cl [Compound 14, 2-(1-(ethylsulfonyl)-3-(4-(5-methyl-2-((1-methyl-1H-pyrazol-3-yl)amino)pyrimidin-4-yl)-1H-pyrazol-1-yl)azetidin-3-yl)acetonitrile hydrochloride, reference compound]
IC50 (JAK1 [2]): > 10 nM
fold less potent than its 2-((pyrazol-4-yl)amino) analog (example 18) (TYK2/JAK1/JAK2): > 10 ×
IC50 (TYK2): > 10 nM

Cc1cnc(Nc2cnn(C)c2)nc1N(C)[C@H]1CN(C(=O)CC#N)CC[C@H]1C [Compound 22, 3-((3R,4R)-4-methyl-3-(methyl(5-methyl-2-((1-methyl-1H-pyrazol-4-yl)amino)pyrimidin-4-yl)amino)piperidin-1-yl)-3-oxopropanenitrile, reference compound]
IC50 (JAK1 [2]): > 100 nM
fold less potent TYK2/JAK1/JAK2 inhibitor compared to analogs of Formula II (example 4) and Formula III (example 18) (TYK2/JAK1/JAK2): > 100 ×
IC50 (TYK2): > 100 nM

Cc1cnc(Nc2cnn(CCO)c2)nc1-c1cnn([C@H](CC#N)C2CCCC2)c1 [Compound 24, (R)-3-cyclopentyl-3-(4-(2-((1-(2-hydroxyethyl)-1H-pyrazol-4-yl)amino)-5-methylpyrimidin-4-yl)-1H-pyrazol-1-yl)propanenitrile]
IC50 (JAK1 [2]): < 1 nM
TYK2/JAK1/JAK2 inhibition (in words) (TYK2/JAK1/JAK2): potent TYK2/JAK1/JAK2 inhibitors
IC50 (JAK2): < 1 nM
IC50 (JAK1 [3]): < 500 nM
IC50 (TYK2): < 1 nM

Cc1cnc(Nc2cnn(CC3COC3)c2)nc1-c1cnn([C@H](CC#N)C2CCCC2)c1 [Compound 9, (R)-3-cyclopentyl-3-(4-(5-methyl-2-((1-(oxetan-3-ylmethyl)-1H-pyrazol-4-yl)amino)pyrimidin-4-yl)-1H-pyrazol-1-yl) propanenitrile]
IC50 (JAK1 [2]): < 1 nM
TYK2/JAK1/JAK2 inhibition (in words) (TYK2/JAK1/JAK2): potent TYK2/JAK1/JAK2 inhibitors
IC50 (JAK2): < 1 nM
IC50 (TYK2): < 1 nM

Cc1cnc(Nc2cnn(C3CCOCC3)c2)nc1-c1cnn([C@H](CC#N)C2CCCC2)c1 [Compound 7, (R)-3-cyclopentyl-3-(4-(5-methyl-2-((1-(tetrahydro-2H-pyran-4-yl)-1H-pyrazol-4-yl)amino)pyrimidin-4-yl)-1H-pyrazol-1-yl)propanenitrile]
IC50 (JAK1 [2]): < 1 nM
TYK2/JAK1/JAK2 inhibition (in words) (TYK2/JAK1/JAK2): potent TYK2/JAK1/JAK2 inhibitors
IC50 (JAK2): < 1 nM
IC50 (TYK2): < 1 nM

Cc1cnc(Nc2cnn(CC3CCOCC3)c2)nc1-c1cnn([C@H](CC#N)C2CCCC2)c1 [Compound 6, (R)-3-cyclopentyl-3-(4-(5-methyl-2-((1-((tetrahydro-2H-pyran-4-yl)methyl)-1H-pyrazol-4-yl)amino)pyrimidin-4-yl)-1H-pyrazol-1-yl)propanenitrile]
IC50 (JAK1 [2]): < 1 nM
TYK2/JAK1/JAK2 inhibition (in words) (TYK2/JAK1/JAK2): potent TYK2/JAK1/JAK2 inhibitors
IC50 (JAK2): < 1 nM
IC50 (TYK2): < 1 nM

Cc1cnc(Nc2cnn(C3COC3)c2)nc1-c1cnn([C@H](CC#N)C2CCCC2)c1 [Compound 8, (R)-3-cyclopentyl-3-(4-(5-methyl-2-((1-(oxetan-3-yl)-1H-pyrazol-4-yl)amino)pyrimidin-4-yl)-1H-pyrazol-1-yl) propanenitrile]
IC50 (JAK1 [2]): < 1 nM
TYK2/JAK1/JAK2 inhibition (in words) (TYK2/JAK1/JAK2): potent TYK2/JAK1/JAK2 inhibitors
IC50 (JAK2): < 1 nM
IC50 (TYK2): < 1 nM

CCCS(=O)(=O)N[C@H]1C[C@@H](N(C)c2ncnc3[nH]ccc23)C1 [abrocitinib]
black box warnings / risks [1]: black box warnings of risks such as serious infections, non-melanoma skin cancers, thrombosis, and thrombocytopenia

CCS(=O)(=O)N1CC(CC#N)(n2cc(-c3nc(Nc4ccc5ncn(C)c5c4)ncc3C)cn2)C1 [Compound 26, 2-(1-(ethylsulfonyl)-3-(4-(5-methyl-2-((1-methyl-1H-benzo[d]imidazol-6-yl)amino)pyrimidin-4-yl)-1H-pyrazol-1-yl)azetidin-3-yl)acetonitrile]
IC50 (JAK1 [2]): < 1 nM
TYK2/JAK1/JAK2 inhibition (in words) (TYK2/JAK1/JAK2): potent TYK2/JAK1/JAK2 inhibitors

N#CC[C@H](C1CCCC1)n1cc(-c2nc(Nc3cnn(C4CCOCC4)c3)ncc2Cl)cn1 [Compound 11]
TYK2/JAK1/JAK2 inhibition (in words) (TYK2/JAK1/JAK2): potent TYK2/JAK1/JAK2 inhibitors
IC50 (TYK2): < 1 nM

CCCS(=O)(=O)N[C@H]1C[C@@H](N(C)c2nc(Nc3cnn(C)c3)ncc2C)C1 [Compound 20, N-((1s,3s)-3-(methyl(5-methyl-2-((1-methyl-1H-pyrazol-4-yl)amino)pyrimidin-4-yl)amino)cyclobutyl)propane-1-sulfonamide, reference compound]
IC50 (JAK1 [2]): > 10 nM
fold less potent TYK2/JAK1/JAK2 inhibitor compared to analogs of Formula II (example 4) and Formula III (example 18) (TYK2/JAK1/JAK2): > 10 ×
IC50 (JAK2): > 10 nM
IC50 (TYK2): > 10 nM

CCS(=O)(=O)N1CC(CC#N)(n2cc(-c3nc(Nc4cn(C)nn4)ncc3C)cn2)C1 [Compound 19, 2-(1-(ethylsulfonyl)-3-(4-(5-methyl-2-((1-methyl-1H-1,2,3-triazol-4-yl)amino)pyrimidin-4-yl)-1H-pyrazol-1-yl)azetidin-3-yl)acetonitrile, reference compound]
IC50 (JAK1 [2]): > 10 nM
fold less potent than its 2-((pyrazol-4-yl)amino) analog (example 18) (TYK2/JAK1/JAK2): > 10 ×
IC50 (JAK2): > 10 nM
IC50 (TYK2): > 10 nM
